Consider six compounds from paper PMC3706088 (Journal of medicinal chemistry, 2013).

“Also recorded” adds a separate entry of the source. Where two headings read alike, the source gives them in different places.

A word on the EC50: it is the concentration that produces a half-maximal response. A high value points to weaker potency.

Assay [1] has as its system Female Sprague-Dawley rats. Kind of assay: Hypothermia: body temperature in rats over 6 h after injection. Conditions: rat, up to a dose of 10.0 mg/kg s.c.
In assay [2] the test system is Female Sprague-Dawley rats. Kind of assay: Antinociception: tail-flick procedure in rats over 6 h after injection. Conditions: rat, up to doses of 10.0 mg/kg s.c.
Assay [3] addresses CB1-E cannabinoid receptors (Homo sapiens, UniProt P21554). Kind of assay: β-arrestin2 translocation assay, U2OS cells expressing CB1-E and β-arrestin2-GFP. Conditions: for β-arrestin2 translocation efficacy, 95% confidence interval: normalized to the response of WIN55212-2 set to 1, N = 3; for in vitro functional characterization, CB1 profile: conclusion of the in vitro functional assays.

The target in assay [4] is T1, rCB1 (Rattus norvegicus, UniProt P20272). The class given is cell-based. As to conditions: for functional profile in cAMP assay: CB1. A general note: cAMP levels reflect the balance of adenylyl cyclase and phosphodiesterase activity.
T1 sequence (P20272 whole entry): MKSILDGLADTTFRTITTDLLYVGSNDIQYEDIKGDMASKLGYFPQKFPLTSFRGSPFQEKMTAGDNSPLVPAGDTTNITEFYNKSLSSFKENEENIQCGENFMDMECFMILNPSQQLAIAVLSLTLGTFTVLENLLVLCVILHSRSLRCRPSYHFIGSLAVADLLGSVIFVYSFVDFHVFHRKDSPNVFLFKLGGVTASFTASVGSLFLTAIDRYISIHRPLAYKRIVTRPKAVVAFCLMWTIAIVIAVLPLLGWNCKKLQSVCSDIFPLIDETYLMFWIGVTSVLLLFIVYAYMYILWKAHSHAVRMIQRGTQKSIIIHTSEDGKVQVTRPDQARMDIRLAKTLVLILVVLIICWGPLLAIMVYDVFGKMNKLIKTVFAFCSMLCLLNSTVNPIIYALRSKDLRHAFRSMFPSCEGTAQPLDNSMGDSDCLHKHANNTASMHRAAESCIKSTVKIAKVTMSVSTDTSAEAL
Another assay concerns the target mCB2 (Mus musculus, UniProt P47936). Kind of assay: Radioligand competition binding with [3H]CP-55,940, mouse spleen membranes. Conditions: from Ki values.
A further assay addresses hCB2 (Homo sapiens, UniProt P34972). The class given is binding. As to conditions: from Ki values.
Assay [5] has as its target T1, rCB1. Kind of assay: Radioligand competition binding with [3H]CP-55,940, rat brain membranes. As to conditions: relative to 11; across rCB1, mCB2 and hCB2. (In general: Displacement assays read how much labelled ligand stays bound in the presence of the test substance.)

Sequence of CB1-E cannabinoid receptors (P21554 1-415): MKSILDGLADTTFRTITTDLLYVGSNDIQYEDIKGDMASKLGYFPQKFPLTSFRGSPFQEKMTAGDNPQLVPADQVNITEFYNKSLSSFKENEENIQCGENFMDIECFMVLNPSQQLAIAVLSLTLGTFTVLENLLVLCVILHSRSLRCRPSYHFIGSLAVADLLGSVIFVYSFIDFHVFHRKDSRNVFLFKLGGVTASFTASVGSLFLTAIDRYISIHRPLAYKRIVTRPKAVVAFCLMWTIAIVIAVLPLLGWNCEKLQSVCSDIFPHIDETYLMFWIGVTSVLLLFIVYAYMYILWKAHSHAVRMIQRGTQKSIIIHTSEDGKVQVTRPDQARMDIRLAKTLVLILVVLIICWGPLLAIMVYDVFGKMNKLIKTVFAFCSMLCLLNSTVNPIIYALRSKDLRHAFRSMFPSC
Sequence of CB1-E cannabinoid receptors (P25103 309-407 partner): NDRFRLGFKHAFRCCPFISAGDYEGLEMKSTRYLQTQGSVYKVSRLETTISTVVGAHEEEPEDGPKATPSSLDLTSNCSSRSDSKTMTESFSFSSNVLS
Sequence of mCB2 (P47936 whole entry): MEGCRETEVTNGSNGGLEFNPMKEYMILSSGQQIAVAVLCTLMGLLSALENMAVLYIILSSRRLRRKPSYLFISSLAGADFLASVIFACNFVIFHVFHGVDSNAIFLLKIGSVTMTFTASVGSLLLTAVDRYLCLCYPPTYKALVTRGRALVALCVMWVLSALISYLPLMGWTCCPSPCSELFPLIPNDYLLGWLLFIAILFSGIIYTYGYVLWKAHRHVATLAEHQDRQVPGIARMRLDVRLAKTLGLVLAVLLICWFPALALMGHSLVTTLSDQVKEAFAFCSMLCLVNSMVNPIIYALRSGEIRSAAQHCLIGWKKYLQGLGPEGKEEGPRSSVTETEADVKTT
Sequence of hCB2 (P34972 whole entry): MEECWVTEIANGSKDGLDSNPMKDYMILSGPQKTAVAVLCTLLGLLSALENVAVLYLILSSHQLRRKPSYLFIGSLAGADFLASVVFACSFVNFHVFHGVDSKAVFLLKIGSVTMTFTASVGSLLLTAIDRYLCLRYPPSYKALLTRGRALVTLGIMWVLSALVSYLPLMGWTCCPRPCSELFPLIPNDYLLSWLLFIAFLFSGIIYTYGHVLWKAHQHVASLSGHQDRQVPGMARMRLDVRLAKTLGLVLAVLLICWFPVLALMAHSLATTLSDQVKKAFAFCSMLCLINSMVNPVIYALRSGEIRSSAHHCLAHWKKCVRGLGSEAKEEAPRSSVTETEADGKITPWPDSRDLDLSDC

For `CC1=CC[C@@H]2[C@@H](C1)c1c(O)cc(C34CC5CC(CC(C5)C3)C4)cc1OC2(C)C` [Compound 1], in assay [1], the hypothermic effects result was “did not have hypothermic effects”. Besides, the “antinociceptive effects (tail-flick)” value in assay [2] is listed as “neither had significant antinociceptive effects”. Moreover, in assay [3], the “β-arrestin2 translocation efficacy, 95% confidence interval” value is on record as 0.43–0.81.

`CC1(C)Oc2cc(C34CC5CC(CC(C5)C3)C4)cc(O)c2[C@@H]2C[C@H](CO)CC[C@H]21` [Compound 11, (6aR,9R,10aR)-3-(Adamantan-1-yl)-9-(hydroxymethyl)-6,6-dimethyl-6a,7,8,9,10,10a-hexahydro-6H-benzo[c]chromen-1-ol]: at rCB1 [4], the EC50 is 1.29 nM and the “functional profile in cAMP assay” value is “potent CB1 agonist”. In addition, the “functional profile in cAMP assay” value on rCB1 [4] (listed as AM4054) is on record as “agonist”. Further, in assay [3], the “in vitro functional characterization, CB1 profile” value is on record as “high efficacy CB1 agonists” and the “β-arrestin2 translocation efficacy, 95% confidence interval” value is on record as 0.65–0.92.

On to `CC1(C)Oc2cc(C34CC5CC(CC(C5)C3)C4)cc(O)c2[C@@H]2C[C@H](CCO)CC[C@H]21` [Compound 16, (6aR,9R,10aR)-3-(Adamantan-1-yl)-9-(2-hydroxyethyl)-6,6-dimethyl-6a,7,8,9,10,10a-hexahydro-6H-benzo[c]chromen-1-ol], for which the “CB1 selectivity over mCB2” value on mCB2 is ~ 4 fold. Moreover, the “CB1 selectivity over hCB2” value on hCB2 is recorded as ~ 4 fold.

Regarding `CC1(C)Oc2cc(C34CC5CC(CC(C5)C3)C4)cc(O)c2[C@@H]2C[C@@H](CO)CC[C@H]21` [Compound 17, (6aR,9S,10aR)-3-(Adamantan-1-yl)-9-(hydroxymethyl)-6,6-dimethyl-6a,7,8,9,10,10a-hexahydro-6H-benzo[c]chromen-1-ol], the “lower affinities than β-hydroxymethyl isomer 11” value at rCB1 [5] was 6- to 11 fold.

Consider `CC1(C)Oc2cc(C34CC5CC(CC(C5)C3)C4)cc(O)c2[C@@H]2CC(CO)=CC[C@H]21` [Compound 22, (6aR,10aR)-3-(Adamantan-1-yl)-9-(hydroxymethyl)-6,6-dimethyl-6a, 7, 10, 10a-tetrahydro-6H-benzo[c]chromen-1-ol], for which, in assay [3], the “in vitro functional characterization, CB1 profile” value is “high efficacy CB1 agonists” and the “β-arrestin2 translocation efficacy, 95% confidence interval” value was 0.54–0.80.

Turning to `CC1(C)Oc2cc(C34CC5CC(CC(C5)C3)C4)cc(O)c2-c2cc(CO)ccc21` [Compound 24], the “CB1 selectivity over mCB2” value at mCB2 is on record as 15 fold. Besides, at rCB1 [4], the EC50 came to 7.97 nM and the “functional profile in cAMP assay” value is given as “CB1 partial agonist; also recorded: partial CB1 agonist”. Further, on rCB1 [4] (listed as AM4089), the “functional profile in cAMP assay” value is recorded as “partial agonist”. In addition, in assay [2], the “antinociceptive effects (tail-flick)” value was “neither had significant antinociceptive effects”. Also, the “β-arrestin2 translocation efficacy, 95% confidence interval” value in assay [3] is listed as 0.68–0.94.
